Source: patent publication US20250108038A1 (priority 2023, published 2025)
“Also recorded” adds a separate entry of the source.

What was measured:
MDR1 = MDR1 (Homo sapiens, UniProt P08183); assay: Vesicular transport inhibition assay, MDR1 (N-methyl quinidine)
Procedure: Vesicular transport assays were performed with inside-out membrane vesicles prepared from cells overexpressing human ABC (efflux) transporters. The transporters were expressed by SOLVO Biotechnology in mammalian (HEK293) cells. The mammalian cells were stably transfected with the ABC transporter of interest. The assays were conducted according to the actual SOLVO VT assay protocols (PR-ASY-VT-General Protocol for Vesicular Transport Inhibition Assays).
The membrane vesicle suspension was mixed with the ice-cold transport buffer, then the probe substrate solution was added. […] (for BCRP and MDR1). […] Reactions were quenched by the addition of 200 μL of ice-cold washing buffer and immediate filtration via glass fiber filters mounted to a 96-well plate (filter plate). The filters were washed (5×200 μL of ice-cold washing buffer), dried and the amount of substrate inside the filtered vesicles was determined by liquid scintillation counting.
Incubation with AMP provided background activity values for all data points.

MATE2-K = MATE2-K (Homo sapiens, UniProt Q86VL8); assay: Uptake transporter inhibition assay, MATE2-K (metformin)
Chain of MATE2-K (Q86VL8 1-566 isoform Q86VL8-3): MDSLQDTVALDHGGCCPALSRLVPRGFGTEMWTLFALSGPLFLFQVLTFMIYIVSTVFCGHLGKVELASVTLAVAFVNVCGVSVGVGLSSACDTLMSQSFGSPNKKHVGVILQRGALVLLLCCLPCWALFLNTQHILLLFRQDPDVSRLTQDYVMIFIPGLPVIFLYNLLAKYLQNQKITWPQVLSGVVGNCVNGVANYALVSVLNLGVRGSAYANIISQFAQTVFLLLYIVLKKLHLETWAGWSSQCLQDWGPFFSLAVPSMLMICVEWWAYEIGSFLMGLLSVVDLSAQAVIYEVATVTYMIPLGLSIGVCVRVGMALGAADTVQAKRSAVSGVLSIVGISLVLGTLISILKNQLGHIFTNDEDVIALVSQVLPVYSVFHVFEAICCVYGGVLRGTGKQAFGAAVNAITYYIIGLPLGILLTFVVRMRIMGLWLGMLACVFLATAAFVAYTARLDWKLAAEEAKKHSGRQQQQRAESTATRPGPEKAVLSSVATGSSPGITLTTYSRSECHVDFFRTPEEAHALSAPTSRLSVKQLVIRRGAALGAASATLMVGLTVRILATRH

[1] = 0.04 μM nominal, IC50 determination
[2] = 0.12 μM nominal, IC50 determination
[3] = 1.11 μM nominal, IC50 determination
[4] = 10.00 μM nominal, IC50 determination
[5] = 30.00 μM nominal, IC50 determination

Chain of MDR1 (P08183 whole entry): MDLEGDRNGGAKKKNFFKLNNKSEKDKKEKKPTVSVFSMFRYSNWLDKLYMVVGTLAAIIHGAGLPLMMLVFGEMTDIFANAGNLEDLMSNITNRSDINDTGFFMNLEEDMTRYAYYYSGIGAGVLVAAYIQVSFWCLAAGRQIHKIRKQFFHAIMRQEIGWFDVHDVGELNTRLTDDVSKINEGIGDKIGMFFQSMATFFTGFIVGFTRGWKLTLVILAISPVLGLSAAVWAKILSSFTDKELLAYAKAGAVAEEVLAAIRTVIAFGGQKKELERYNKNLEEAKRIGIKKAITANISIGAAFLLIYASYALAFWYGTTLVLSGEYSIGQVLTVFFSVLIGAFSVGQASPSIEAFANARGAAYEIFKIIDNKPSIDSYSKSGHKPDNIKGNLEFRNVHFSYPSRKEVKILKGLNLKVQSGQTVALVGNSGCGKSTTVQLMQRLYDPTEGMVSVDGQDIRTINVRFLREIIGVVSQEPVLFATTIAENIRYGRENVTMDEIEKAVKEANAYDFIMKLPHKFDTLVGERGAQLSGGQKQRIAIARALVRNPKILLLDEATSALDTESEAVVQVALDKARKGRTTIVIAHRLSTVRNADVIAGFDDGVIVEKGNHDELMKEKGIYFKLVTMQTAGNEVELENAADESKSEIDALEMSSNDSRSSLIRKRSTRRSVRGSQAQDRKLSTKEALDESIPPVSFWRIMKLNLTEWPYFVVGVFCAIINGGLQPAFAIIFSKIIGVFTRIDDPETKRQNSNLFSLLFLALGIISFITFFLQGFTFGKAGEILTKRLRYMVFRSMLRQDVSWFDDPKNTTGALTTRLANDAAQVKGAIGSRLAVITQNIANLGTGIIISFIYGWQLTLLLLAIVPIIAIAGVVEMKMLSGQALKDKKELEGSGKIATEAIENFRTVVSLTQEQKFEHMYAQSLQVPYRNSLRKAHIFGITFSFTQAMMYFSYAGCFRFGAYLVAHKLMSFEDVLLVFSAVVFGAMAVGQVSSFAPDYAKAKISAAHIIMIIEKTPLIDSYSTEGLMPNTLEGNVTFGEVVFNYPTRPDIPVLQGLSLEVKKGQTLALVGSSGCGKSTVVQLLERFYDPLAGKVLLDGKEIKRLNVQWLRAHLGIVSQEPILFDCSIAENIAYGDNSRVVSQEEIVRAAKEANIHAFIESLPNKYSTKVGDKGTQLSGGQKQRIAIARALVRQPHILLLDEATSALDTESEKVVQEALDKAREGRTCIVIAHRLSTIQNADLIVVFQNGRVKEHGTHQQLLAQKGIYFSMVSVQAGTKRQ

With OC1(c2ccc(Cl)cc2)c2ccccc2C2=NCCN21 (centres unmarked) [Compound A, 5-(4-chlorophenyl)-2,3-dihydroimidazo[1,2-b]isoindol-5-ol, reference compound] the “Relative ATP-dependent transport” value (MDR1; 5.00 μM nominal) was 99.11 ± 9.38 % of control, the “Relative ATP-dependent transport” value (MDR1; 50.00 μM nominal) was 97.83 ± 5.19 % of control and the “maximum inhibition of MDR1-mediated NMQ accumulation” value (MDR1; 2-concentration assay, up to 100 μM (Compound A up to 50 μM)) was “did not inhibit; also recorded: not an in vitro inhibitor”. For the same compound, the Maximum % inhibition (MDR1; MDR1, inside-out membrane vesicles, NMQ (1 μM), NIO: No inhibition observed) was “NIO”, the inhibition at 5 μM (MDR1; human, Relative inhibition, 5.00 μM nominal) was 1% and the inhibition at 50 μM (MDR1; human, Relative inhibition, 50.00 μM nominal) was 2%. The IC50 (MATE2-K) was 12.8 µM, the “Relative transporter specific accumulation” value (MATE2-K; [1]) was 90.25 ± 3.17 % of control and the Transporter specific accumulation (MATE2-K; [1]) was 108.00 ± 2.98 cpm. For the same compound, the “Relative transporter specific accumulation” value (MATE2-K; [2]) was 96.94 ± 8.16 % of control, the Transporter specific accumulation (MATE2-K; [2]) was 116.00 ± 9.43 cpm and the “Relative transporter specific accumulation” value (MATE2-K; [3]) was 89.69 ± 6.53 % of control. The Transporter specific accumulation (MATE2-K; [3]) was 107.33 ± 7.45 cpm, the “Relative transporter specific accumulation” value (MATE2-K; 3.00 μM nominal) was 97.37 ± 11.23 % of control and the Transporter specific accumulation (MATE2-K; 3.00 μM nominal) was 86.33 ± 7.06 cpm. For the same compound, the “Relative transporter specific accumulation” value (MATE2-K; [4]) was 51.81 ± 3.80 % of control, the Transporter specific accumulation (MATE2-K; [4]) was 62.00 ± 4.35 cpm and the “Relative transporter specific accumulation” value (MATE2-K; 30.00 μM nominal) was 27.07 ± 4.56 % of control. For the same compound, the Transporter specific accumulation (MATE2-K; 30.00 μM nominal) was 24.00 ± 3.54 cpm, the “Relative transporter specific accumulation” value (MATE2-K; [5]) was 20.61 ± 1.94 % of control and the Transporter specific accumulation (MATE2-K; [5]) was 24.67 ± 2.26 cpm. It also gave an inhibition at 10 µM (MATE2-K; human, Maximum % inhibition, MATE2-K, HEK293 cells, metformin (10 μM), NIO: no inhibition observed) of 79%, an inhibition at 0.04 μM (MATE2-K; human, Relative inhibition, 0.04 μM nominal, IC50 determination) of 10% and an inhibition at 0.12 μM (MATE2-K; human, Relative inhibition, 0.12 μM nominal, IC50 determination) of 3%. For the same compound, the inhibition at 1.11 μM (MATE2-K; human, Relative inhibition, 1.11 μM nominal, IC50 determination) was 10%, the inhibition at 3 μM (MATE2-K; human, Relative inhibition, 3.00 μM nominal) was 3% and the inhibition at 10 µM (MATE2-K; human, Relative inhibition, 10.00 μM nominal, IC50 determination) was 48%. For the same compound, the inhibition at 30 μM (MATE2-K; human, Relative inhibition, 30.00 μM nominal) was 73% and the inhibition at 30 μM (MATE2-K; human, Relative inhibition, 30.00 μM nominal, IC50 determination) was 79%.
